Columns and labels:
[1] = system: HmPDR1; test: Quantitative RT-PCR of HmPDR1 expression in hairy roots; assay type: cell-based, Hyoscyamus muticus; details: 1 mM CdCl2, H2O as a control
Protocol: FIG. 3: HmPDR1 expression is induced by CdCl2. Quantitative RT-PCR analysis of HmPDR1 in total RNA from H. muticus hairy roots treated with 1 mM CdCl2 or H2O as a control. Ethidium bromide-stained rRNA is used as a control. The fold increase in the ratio of HmPDR1 transcript to rRNA fluorescence, relative to the value at time point zero, is given below the panels. Time after elicitation is indicated in hours.
To confirm the postulated relationship between the expression of ABC transporter genes and the CdCl2 induced release of alkaloids we performed an expression analysis of the HmPDR1 gene in CdCl2 treated Hyoscyamus hairy roots (FIG. 3).

[2] = system: BY-2 cells transformed with pK7WGD2-ScPDR5-US50; test: Hyoscyamine-induced cell death (Evans blue) in the ScPDR5-US50 line; assay type: cell-based, Nicotiana tabacum; details: 30 mM hyoscyamine, US50 lines compared to GUS control line
Protocol: FIG. 2: Hyoscyamine-induced cell death in transformed BY-2 cells. […] Cell death was assayed at two time points (6 hours and 24 hours) by Evans blue staining and is indicated as the fold increase in optical density at OD600 relative to the value at the start of the experiment. Values are the mean of three independent experiments. GUS, US50, W303 and AT represent BY-2 cell lines transformed with pK7WGD2-GUS, pK7WGD2-ScPDR5-US50, pK7WGD2-ScPDR5-W303 and pK7WGD2-AtPDR1 respectively.

[3] = system: wild type yeast; details: YPD plates, growth evaluated after two days at 28° C.
[4] = system: Wild type BY-2 cells; details: MSST plates, growth evaluated after 15 days at 26° C.
[5] = system: tobacco BY-2 cells; details: Nicotiana tabacum
[6] = system: BY-2 cell lines expressing the different yeast Pdr5 transporters; details: compared to the control GUS-expressing lines
[7] = system: yeast AD3 strain expressing AtPDR1; details: YPD plates containing the alkaloid
[8] = system: Transgenic BY-2 cells expressing AtPDR1; details: compared to the control GUS expressing line
[9] = target: Pdr5p (Saccharomyces cerevisiae, UniProt P33302); details: Kolaczkowski et al. 1996, 1998; cited from earlier work
Sequence of Pdr5p (P33302 whole entry): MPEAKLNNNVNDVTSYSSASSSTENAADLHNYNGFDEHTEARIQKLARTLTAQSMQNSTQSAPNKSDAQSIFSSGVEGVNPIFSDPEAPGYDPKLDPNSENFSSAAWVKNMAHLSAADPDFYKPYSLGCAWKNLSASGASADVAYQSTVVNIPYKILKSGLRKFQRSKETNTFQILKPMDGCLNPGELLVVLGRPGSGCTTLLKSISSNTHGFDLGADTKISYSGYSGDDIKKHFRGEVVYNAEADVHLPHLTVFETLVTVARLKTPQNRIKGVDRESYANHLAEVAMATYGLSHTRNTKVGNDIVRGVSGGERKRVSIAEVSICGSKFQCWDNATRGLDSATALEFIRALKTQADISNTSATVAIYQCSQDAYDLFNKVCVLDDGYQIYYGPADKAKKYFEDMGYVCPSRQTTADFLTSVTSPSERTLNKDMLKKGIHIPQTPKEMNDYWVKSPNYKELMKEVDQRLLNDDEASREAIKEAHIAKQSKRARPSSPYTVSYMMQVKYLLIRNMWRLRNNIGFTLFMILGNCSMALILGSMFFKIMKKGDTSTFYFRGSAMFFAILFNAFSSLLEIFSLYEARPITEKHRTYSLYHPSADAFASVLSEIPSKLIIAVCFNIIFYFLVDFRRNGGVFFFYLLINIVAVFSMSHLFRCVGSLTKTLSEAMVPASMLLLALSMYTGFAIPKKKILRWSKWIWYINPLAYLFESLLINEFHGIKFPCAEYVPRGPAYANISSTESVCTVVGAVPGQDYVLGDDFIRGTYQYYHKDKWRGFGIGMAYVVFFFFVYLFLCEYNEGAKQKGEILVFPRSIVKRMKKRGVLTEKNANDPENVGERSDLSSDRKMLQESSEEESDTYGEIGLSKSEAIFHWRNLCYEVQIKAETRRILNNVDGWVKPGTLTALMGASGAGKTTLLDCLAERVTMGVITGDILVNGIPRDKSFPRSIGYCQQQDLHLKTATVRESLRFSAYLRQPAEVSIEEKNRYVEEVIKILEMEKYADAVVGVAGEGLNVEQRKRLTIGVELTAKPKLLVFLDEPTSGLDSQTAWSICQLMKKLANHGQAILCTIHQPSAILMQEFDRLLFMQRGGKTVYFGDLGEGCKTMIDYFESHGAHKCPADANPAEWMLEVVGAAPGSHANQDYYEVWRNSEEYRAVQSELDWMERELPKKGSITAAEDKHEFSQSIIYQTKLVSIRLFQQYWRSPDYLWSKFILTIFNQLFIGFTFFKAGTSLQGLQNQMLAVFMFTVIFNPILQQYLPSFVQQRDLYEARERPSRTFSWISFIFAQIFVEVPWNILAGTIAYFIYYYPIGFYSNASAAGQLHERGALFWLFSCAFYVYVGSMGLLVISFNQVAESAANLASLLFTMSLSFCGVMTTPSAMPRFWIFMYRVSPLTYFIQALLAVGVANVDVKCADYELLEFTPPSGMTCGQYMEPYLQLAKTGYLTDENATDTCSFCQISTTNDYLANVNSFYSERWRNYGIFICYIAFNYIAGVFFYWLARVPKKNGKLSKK

**Q.** With `[Cl][Cd][Cl]` [CdCl2] as the compound, how does the HmPDR1 expression [1] read?
**A.** The HmPDR1 expression was “upregulated”.

**Q.** Which “decrease in hyoscyamine induced cell death” value [2] does the source give for `CN1[C@@H]2CC[C@H]1C[C@@H](OC(=O)[C@H](CO)c1ccccc1)C2` [hyoscyamine] here?
**A.** Its value is 15%.

**Q.** What about the “level tolerated by wild type yeast” value [3] of the same compound?
**A.** Its value is 50 mM.

**Q.** And the “level tolerated without severe growth problems” value [4]?
**A.** The value was 30000 µM.

**Q.** And the “level causing the death of all suspension cultured tobacco cells” value [5]?
**A.** Its value is 50000 µM.

**Q.** For `CN1CCCC1c1cccnc1` (stereo not drawn) [nicotine], which “level tolerated by wild type yeast” value [3] is on record?
**A.** The value was 15 mM.

**Q.** What about the “level tolerated without severe growth problems” value [4] of the same compound?
**A.** The value was 3000 µM.

**Q.** What about the “level causing the death of all suspension cultured tobacco cells” value [5] of the same compound?
**A.** The value was 20000 µM.

**Q.** What about the “tolerance in growth performance assay” value [6] of the same compound?
**A.** The value was “increased tolerance”.

**Q.** What about the “growth of the pdr5 mutant strain expressing AtPDR1 on the alkaloid” value [7] of the same compound?
**A.** Its value is “restore the growth”.

**Q.** What about the “tolerance of AtPDR1 transgenic BY-2 cells” value [8] of the same compound?
**A.** The value was “enhanced tolerance”.

**Q.** For `CN1[C@@H]2C[C@@H](OC(=O)[C@H](CO)c3ccccc3)C[C@H]1[C@@H]1O[C@@H]12` [scopolamine], which “level tolerated by wild type yeast” value [3] is on record?
**A.** Its value is 100 mM.

**Q.** With `CC(=O)O[C@H]1C(=O)[C@@]2(C)[C@H]([C@H](OC(=O)c3ccccc3)[C@]3(O)C[C@H](OC(=O)[C@H](O)[C@@H](NC(=O)c4ccccc4)c4ccccc4)C(C)=C1C3(C)C)[C@]1(OC(C)=O)CO[C@@H]1C[C@@H]2O` [taxol] as the compound, how does the “substrate for Pdr5p mediated multidrug transport” value (from here on “substrate”) [9] read?
**A.** Its value is “substrates”.

**Q.** With `CC[C@]1(O)C[C@@H]2CN(CCc3c([nH]c4ccccc34)[C@@](C(=O)OC)(c3cc4c(cc3OC)N(C)[C@H]3[C@@](O)(C(=O)OC)[C@H](OC(C)=O)[C@]5(CC)C=CCN6CC[C@]43[C@@H]65)C2)C1` [vinblastine] as the compound, how does the “substrate” value [9] read?
**A.** The value was “substrates”.

**Q.** For `CC[C@]1(O)C[C@H]2CN(CCc3c([nH]c4ccccc34)[C@@](C(=O)OC)(c3cc4c(cc3OC)N(C=O)[C@H]3[C@@](O)(C(=O)OC)[C@H](OC(C)=O)[C@]5(CC)C=CCN6CC[C@]43[C@@H]65)C2)C1` [vincristine], which “substrate” value [9] is on record?
**A.** The value was “substrates”.
